According to patent US11198869B2, “Angelman syndrome antisense treatment” (The Texas A&M University System, priority 2017, dated 2021):

Key:
UBE3A-AS = UBE3A-AS steady state RNA (TaqMan qRT-PCR) in GABAergic iPSC-derived neurons; format: cell-based, human; conditions: ASOs 10 μM
Procedure: (§1) Human-specific ASOs were then designed to target this region, which included four ASOs targeting non-polymorphic regions in human and regions conserved (100%) with macaque (Rhesus and Cynomolgus) (Table 7 and FIG. 3A). Human induced pluripotent stem cell (iPSC) neural precursor cells were differentiated into GABAergic neurons for 14 DIV and then treated with a control ASO [ASO-C (10 μM, n=3)], Topotecan [Topo (1 μM, n=2)], and six ASOs targeting UBE3A-AS [ASO-1, ASO-2, ASO-3, ASO-4, ASO-5, and ASO-6 (10 μM, n=3)]. Additionally, an ASO targeting an intronic region downstream of SNORD109B was included (ASO-7). Six days post-treatment (20 DIV), RNA was isolated from the neurons and the steady state RNA levels of UBE3A-AS and UBE3A were estimated relative to the control treatment (FIG. 3B).
The potency of ASO-4 was further examined given its effect on UBE3A-AS RNA levels. GABAergic iPSC-derived neurons were treated at 14 DIV with a 10-point ½ log dose response curve of ASO-4 and Topotecan, as a positive control and for comparisons between treatment [1 nM, 3 nM, 10 nM, 30 nM, 100 nM, 300 nM, 1 μM, 3 μM, 10 μM, and 30 μM (ASO-4, n=6; Topotecan, n=2)]. At 20 DIV, the steady state RNA levels of UBE3A-AS were measured and dose response curves fitted to estimate the IC50 and Emax (i.e., maximum UBE3A-AS inhibition) (Table 9 and FIG. 4A). […]
Additional ASOs targeting the 5′-end of UBE3A-AS were then designed to optimize the target sequences of ASO-4 (ASO-4.1, ASO-4.2, ASO-4.3, and ASO-4.4) as well as two other target regions, ASO-3 (ASO-3.1 and ASO-3.2) and ASO-6 (ASO-6.1) (Table 11). Additionally, ASO-4 was manufactured at two different vendors for comparative purposes (ASO-4.S, Sigma; ASO-4.I, Integrated DNA Technologies). Human iPSC-derived neurons (GABAergic) were treated at 14 DIV with a […] ½ log dose curve of ASO-3.1, ASO-3.2, ASO-4.S, ASO-4.I, ASO-4.1, ASO-4.2, ASO-4.3, ASO-4.4, and ASO-6.1 [30 nM, 100 nM, 300 nM, 1 μM (n=6)]. At 20 DIV, the IC50 and Emax of each ASO was estimated as described above (FIG. 5A-B and Table 12). […] No significant difference was observed between ASO-4.S and ASO-4.I.
(§2) The potency of ASO-4 and ASO-6.1 was further examined in iPSC-derived neurons at a later time point in differentiation. GABAergic iPSC-derived neurons were treated at 29 DIV with a 10-point ½ log dose response curve of ASO-4 and ASO-6.1 [1 nM, 3 nM, 10 nM, 30 nM, 100 nM, 300 nM, 1 μM, 3 μM, 10 μM, and 30 μM (n=3)]. At 35 DIV, the IC50 and Emax of each ASO was estimated as described above (FIG. 5C-D and Table 14). The dose response curves of ASO-4 and ASO-6.1 were not similar (Parallelism test: F(3,172)=22.7, p<0.0001).
(§3) GABAergic and glutamatergic induced pluripotent stem cell (iPSC) derived neural precursor cells (NRC-100-010-001 and GNC-301-030-001, Cellular Dynamics International, Madison Wis.) were differentiated into neurons according to the manufactures protocol. Briefly, neural precursor cells were thawed and resuspended in chemically defined medium and added to sterile-culture plates coated with poly-D-lysine and laminin. The medium was replaced 24 hr after plating and then one-half of the medium was replaced every 3-5 days afterwards.
(§4) For cultured iPSC-derived neurons, RNA isolation and cDNA synthesis were performed using the Cell-to-CT kit (Thermo Fisher Scientific) in a lysate volume of 55 μl.
The steady state RNA levels of target transcripts were measured using TaqMan quantitative reverse-transcription PCR (qRT-PCR) assays. Total reaction volume was 10 uL, including 2 μl of cDNA, 1× Gene Expression Master mix (4369016, Thermo Fisher Scientific, Waltham, Mass.), and 1× TaqMan primer assay (Thermo Fisher Scientific). Cycling conditions were 2 minutes at 50° C., 10 minutes at 95° C., and 40 cycles of 15 seconds at 95° C. and 1 minute at 60° C., with readings taken at the 60° C. step of every cycle. […]

UBE3A = UBE3A steady state RNA (qRT-PCR) in GABAergic iPSC-derived neurons; format: cell-based, human; conditions: ASOs 10 μM
Procedure: as §1
The effects of ASO-4 and Topotecan were then examined on the SNORD116, IPW, SNORD115, and SNORD109A RNAs, which are located upstream of the ASO-4 target region (see FIG. 1A).
The potency of ASO-4 was further examined in iPSC-derived neurons at a later time point in differentiation. GABAergic iPSC-derived neurons were treated at 59 DIV with a control ASO [ASO-C, 10 μM (n=3)] and ASO-4 [1 uM, 5 μM, and 10 μM (n=3)], and the steady state RNA levels of UBE3A-AS and UBE3A were measured as described above (FIG. 4G). Unlike neurons treated with ASO-4 at an earlier time point, the RNA levels of UBE3A and UBE3A-AS were highly inversely correlated (FIGS. 4H and 4I). For example, the effect of ASO-4 (10 μM) on UBE3A-AS RNA levels was similar between neurons treated at 14 and 59 DIV [20 DIV: UBE3A-AS: ↓87% (95% confidence intervals (CI): 80 to 95%); 65 DIV: ↓81% (95% CI: 74 to 88%)], whereas the effect of ASO-4 on UBE3A RNA levels was substantially larger in neurons treated at 59 DIV [20 DIV: ↑30% (95% CI: 16 to 44%); 65 DIV: ↑86% (95% CI: 59% to 113%)].
as §2, §3, §4
The steady state RNA levels of target transcripts were measured using TaqMan quantitative reverse-transcription PCR (qRT-PCR) assays. Total reaction volume was 10 uL, including 2 μl of cDNA, 1× Gene Expression Master mix (4369016, Thermo Fisher Scientific, Waltham, Mass.), and 1× TaqMan primer assay (Thermo Fisher Scientific). Cycling conditions were 2 minutes at 50° C., 10 minutes at 95° C., and 40 cycles of 15 seconds at 95° C. and 1 minute at 60° C., with readings taken at the 60° C. step of every cycle. Reactions were run on a BIO-RAD T1000 CFX96 thermocycler (Bio-Rad Laboratories, Hercules Calif.), with internal control (PPIA, Hs99999904_m1, Thermo Fisher Scientific) and target [UBE3A-AS, Hs01372957_m1; SNORD116-11, Hs04275268_gH; SNORD115, Hs04275288_gH; IPW, Hs03455409_s1; SNORD109A/B, AP47WVR (Thermo Fisher Scientific); UBE3A: forward […] (SEQ ID NO:500); reverse: […]

[1] = tested on: paternal Ube3aYFP protein; assay: Paternal Ube3aYFP protein levels by immunofluorescent imaging in mouse primary hippocampal neurons; format: cell-based; conditions: treated 7 DIV, imaged 10 DIV; ASOs 1, 5, 15 μM, Topotecan 300 nM; compared to ASO-C and Veh
Procedure: Based on these findings, mouse-specific ASOs were designed to target a specific region in the Ube3a-AS transcript (Table 6 and FIG. 2A). To test whether ASOs targeting this region reactivate expression of the paternal Ube3a allele, primary hippocampal neuronal cultures were generated from the Ube3aYFP reporter mouse model (Ube3a+/YFP; FIG. 2B) and treated at 7 days in vitro (DIV) with a control ASO [ASO-C (10 uM, n=3)], three ASOs targeting Ube3a-AS [ASO-1.1, ASO-1.2, ASO-3.1 (1 μM, 5 μM, and 15 μM, n=3)], and ASO-B (1 μM, 5 μM, and 15 μM, n=3)]. As a positive control, neurons were also treated with Topotecan [Topo (300 nM, n=3)] and a negative vehicle control [Veh (1%, n=3); FIG. 2 C]. Three days post-treatment (10 DIV), immunofluorescent imaging was used to quantify paternal Ube3aYFP protein levels in individual cells.
Primary cultures of hippocampal neurons were generated from P0-P1 pups (Ube3a^m+/p+ and Ube3a^m+/pYFP) by crossing Ube3a^m+/pYFP males with wild-type C57BL/6J females. Genotypes were determined using methods described previously. Briefly, hippocampal neurons were cultured in Neurobasal A medium (Invitrogen, San Diego, Calif.) supplemented with B27 (Invitrogen) and penicillin/streptomycin (Invitrogen) on 96-well optical bottom plates coated with poly-D-Lysine (152028, Thermo Fisher Scientific) and laminin (23017-01, Thermo Fisher Scientific). […]

[2] = Topo 1 μM, 14 DIV to 20 DIV, ASO-R minus labelled treatment
[3] = Topo 1 μM, treated 14 DIV, RNA 20 DIV, normalized to ASO-C, ASO-C minus labelled treatment
[4] = Topo 1 μM, 14 DIV to 20 DIV, labelled treatment minus ASO-3
[5] = Topo 1 μM, 14 DIV to 20 DIV, labelled treatment minus ASO-6
[6] = Topo 1 μM, 14 DIV to 20 DIV, labelled treatment minus ASO-R
[7] = Topo 1 μM, treated 14 DIV, RNA 20 DIV, normalized to ASO-C, labelled treatment minus ASO-C
[8] = Topo 1 μM, 14 DIV to 20 DIV, ASO-1 minus labelled treatment
[9] = Topo 1 μM, 14 DIV to 20 DIV, Topo minus labelled treatment
[10] = 14 DIV to 20 DIV, ASO-5 minus labelled treatment

Row | Substance | Difference, UBE3A-AS RNA level (UBE3A-AS; [2]) | Difference, UBE3A-AS RNA level (UBE3A-AS; [3]) | Difference, UBE3A RNA level (UBE3A; [4]) | Difference, UBE3A RNA level (UBE3A; Topo 1 μM, 14 DIV to 20 DIV, labelled treatment minus ASO-5) | Difference, UBE3A RNA level (UBE3A; [5]) | Difference, UBE3A RNA level (UBE3A; [6]) | Difference, UBE3A RNA level (UBE3A; [7]) | Difference, UBE3A RNA level (UBE3A; 14 DIV to 20 DIV, labelled treatment minus Topo (1 μM)) | Difference, UBE3A-AS RNA level (UBE3A-AS; [8]) | Difference, UBE3A-AS RNA level (UBE3A-AS; [9]) | Difference, UBE3A-AS RNA level (UBE3A-AS; [10]) | paternal Ube3aYFP protein levels [1] | Difference, UBE3A-AS RNA level (UBE3A-AS; 14 DIV to 20 DIV, ASO-3 minus labelled treatment)
1 | U^O*A^O*G^O*A^O*G^O*g*t*g*a*a*g*g*c*c*a*G^O*G^O*C^O*A^O*C^O [ASO-1] | 0.49 | 0.51 | 0.05 | 0.02 | 0.02 | 0.18 | 0.18 | 0.00 | – | – | – | – | –
2 | U^O*G^O*U^O*C^O*A^O*g*t*t*t*c*t*c*c*c*t*G^O*A^O*A^O*C^O*A^O [ASO-3] | 0.77 | 0.79 | – | – | – | 0.13 | 0.13 | – | 0.28 | 0.13 | 0.08 | – | –
3 | G^O*U^O*U^O*U^O*U^O*c*t*t*c*c*t*c*c*a*c*A^O*G^O*U^O*C^O*U^O [ASO-5] | 0.69 | 0.71 | 0.03 | – | 0.00 | 0.16 | 0.16 | – | 0.20 | 0.05 | – | – | –
4 | C^O*C^O*A^O*C^O*A^O*t*t*t*c*c*t*c*t*c*a*U^O*G^O*G^O*A^O*A^O [ASO-1.1] | – | – | – | – | – | – | – | – | – | – | – | level similar to that achieved by the optimal concentration of Topotecan | –
5 | C^O*U^O*G^O*G^O*U^O*g*t*c*a*a*c*a*a*g*c*C^O*A^O*A^O*A^O*G^O [ASO-6] | 0.81 | 0.83 | 0.03 | – | – | 0.16 | 0.16 | – | 0.32 | 0.17 | 0.12 | – | 0.04
